Laboratory results from patent US20230320984A1, “TOFACITINIB-CONTAINING ANHYDROUS ELASTOMER-BASED GEL FORMULATIONS” (Vyne Therapeutics Inc., priority 2022, published 2023).
Where a name gives a salt, the structure may show the parent alone. Read-outs that look alike come from different tables or passages of the source.

Key:
[1] = AD murine model: body weight
Method: (§1) Atopic Dermatitis is induced by once daily application for 38 days of 100 μl of 0.5% 2,4-dinitrochlorobenzene (DNCB) solution onto the shaved back skin of mice. Starting on day 32, test formulations are administered once daily onto the shaved back skin of mice in addition to DNCB. Several measurements are taken at different time points:
Daily from Day 32: Body weight, mortality, behaviour (scratching), general condition, AD index.

[2] = system: Atopic Dermatitis induced by 2,4-dinitrochlorobenzene (DNCB); experiment: AD murine model: Atopic Dermatitis Index (ADI, mADI) (Method C); type: in vivo; settings: DNCB induced mice
Excerpt: In the mouse model the positive control is observed to cause a marked weight loss and thinning of the skin and this can be perceived to mask the scoring observed with the other parameters and omitting it may on one level provide a clearer representation of the treatment potential of the combination since no marked weight loss or thinning is noted other than with the positive control.
The presence of erythema/haemorrhage is scored based on the following scoring grid: • 0=no or no more erythema/haemorrhage on the skin, • 1=weak erythema/haemorrhage on the skin, • 2=moderate erythema/haemorrhage on the skin, • 3=severe erythema/haemorrhage on the skin.
The presence of edema/thickening is scored based on the following scoring grid: • 0=no or no more edema/thickening of the skin, • 1=weak edema/thickening of the skin, • 2=moderate edema/thickening of the skin, • 3=severe edema/thickening of the skin.
The presence of excoriation/erosion is scored based on the following scoring grid: • 0=no or no more excoriation/erosion of the skin, • 1=weak excoriation/erosion of the skin, • 2=moderate excoriation/erosion of the skin, • 3=severe excoriation/erosion of the skin.
The presence of dryness/peeling is scored based on the following scoring grid: • 0=no or no more dryness/peeling of the skin, • 1=weak dryness/peeling of the skin, • 2=moderate dryness/peeling of the skin, • 3=severe dryness/peeling of the skin.
Several measurements are taken at different time points: […]

[3] = system: Hartley-derived albino guinea pigs; settings: for test animals with erythema scores of 1 / test animals with erythema scores of 2: 0.1% w/v DNCB challenge
Method: A DNCB positive control group consisting of 10 DNCB test and 10 DNCB control guinea pigs are included in this study. The animals are treated as below with the DNCB test animals receiving 0.1% w/v DNCB in acetone and ethanol for induction and 0.1% and 0.05% w/v DNCB in acetone and ethanol for challenge.
The Test Article, placebo control, and the appropriate positive control articles are administered dermally for approximately 6 hours once on Days 0, 7, and 14 for inductions 1 to 3. The animals are reclipped on the day prior to dosing or induction to visualize the test sites clearly for grading. Following a 2-week rest period, a challenge (Day 28) is performed for Test Article group and placebo group on the same animal but on a different test site than the induction site. During the challenge phase the 20 Test Article group and 10 common challenge control guinea pigs are topically treated with Test Article and the 20 placebo control article and the same 10 common challenge control guinea pigs (separate test sites) are topically treated with placebo. Challenge responses for each of these groups are compared with those of the common challenge control animals. If challenge results are considered indefinite a rechallenge is conducted.
On the day prior to the first DNCB induction or dose administration (Day −1), the hair is removed from the left side of the test animals with a small animal clipper. Care is taken to avoid abrading the skin during the clipping procedures. On the day following clipping (Day 0), chambers containing the appropriate material are applied to the clipped area of the test animals and DNCB test animals. For the induction and challenge phases, a dose of 0.3 mL (or maximum volume for viscous materials) is placed on a 25 mm Hill Top Chamber® backed by adhesive tape (occlusive patch). The chambers are then applied to the clipped surface as quickly as possible.
The application site for induction is moved when irritation persists from a previous induction exposure (to ensure the test article is not dosed on compromised skin) but remains on the left side of the animal.
On the day prior to challenge dose administration, the test, placebo control article, challenge control, DNCB test, and DNCB challenge control animals are weighed, and the hair is removed from the right side of the animals.

[4] = system: Atopic Dermatitis induced by DNCB; design: species or system mice; settings: mouse, in vivo
Method: as §1
Day 39: Histological analysis of skin samples, microscopic scoring of AD, blood assays, assay for pro-inflammatory cytokines IL-1β, IL-6, IL-18, TNF-α, IgE, and histamine assays.

[5] = cited from earlier work
[6] = human, in vivo
Method: (§2) Values below the limit of concentration are omitted from determination of geometric mean and geometric % CV.
(§3) Frozen samples are thawed at room temperature and homogenized by vortexing. 10 μL of ISTD2 and 104, of Methanol/Water (50/50, v/v) to each sample (exception blank samples for which 20.0 μL Methanol/Water (50/50, v/v) is added) is addeded to Eppendorf tubes each containing 100 μL sample. 300 μL of acetonitrile is added to each sample and vortexed for additional 10 sec. Next samples are centrifuged for 10 min at 14000 rpm at 5° C. 310 μL of the supernatant is transferred into a 96-DWP. Samples are evaporated at approximately 40° C. (turbovap 96) under N2. 100 μL mobile phase A (see table below) is added to each sample and the 96-DWP is sealed with heatsealing foil and shaken for 5 min on a Vortex-shaker and then centrifuged for 5 min with settings 4500 rpm at 5° C. The 96-DWP is transferred to the autosampler and then the samples are diluted by 100-fold, first by adding 10 μl of sample in 904, of blank plasma/water (dilution 1/10) and then by pipetting 104, of sample diluted 10 fold in 904, of blank plasma (dilution 1/100). The diluted samples are vortexed for 5 sec and processed.
(§4) After, the analyte is separated on a Luna Omega Polar C18 column (50×2.1 mm, 3 μm) with gradient elution of a mobile phase composed of water/acetonitrile/ammonium formate/formic acid it is analyzed using electrospray ionization (ESI) tandem mass spectrometry (MS/MS) in the multiple reaction monitoring mode (MRM).

[7] = Chemical stability of formulations (Method H); type: physicochemical; settings: gel with Tofacitinib Citrate 1.0% and Fingolimod HCl 0.01% (Table 38)
Method: Where another active agent such as fingolimod is present in the formulations the samples are analyzed for that active agent and its degradation products by HPLC. […] The gradient elution is employed.

[8] = clinical; settings: human, in vivo
Method: as §2, §3, §4

[9] = system: Human skin from cosmetic reduction surgery; experiment: Skin penetration (IVPT), vertical diffusion cell (Method A); type: in vitro ADME
Method: The skin is dosed with approx. 6 mg of formulation to achieve a dose of ˜ 10 mg/cm2. Receptor solution is collected at pre-determined intervals over the course of 24 hours and analyzed using a liquid chromatography with tandem mass spectrometry (LC-MS/MS) analytical method.
Following 24 hours, the residual formulation is removed from the surface of the skin. The skin surface is tape-stripped up to five times to remove residual formulation and the top of the skin surface layers (Stratum Corneum). The epidermis is then heat-separated from the dermis. The active agent is extracted from the skin layers and the amount of active agent delivered to the epidermis and dermis is then determined by LC-MS/MS.

[10] = Solubility test of tofacitinib citrate in solvents and excipients (Method D); type: physicochemical
Method: Saturated solutions of tofacitinib citrate in various solvents are generated by agitating (stirring) an excess amount of solid crystalline tofacitinib citrate in the corresponding solvent at ambient conditions. […] An additional analysis is performed after 48 hours of agitation to confirm the determined saturated concentration.

[11] = Stability of tofacitinib citrate solution in 50 mM citrate buffer at different pH, 60° C.; type: physicochemical; design: unit not given here
Excerpt: In one or more embodiments the pH, is about 4, about 4.1, about 4.2, about 4.3, about 4.4, about 4.5, about 4.6, about 4.7, about 4.8, about 4.9 or about 5.

[12] = Ex 43 Table 43 (fingolimod and tofacitinib)
[13] = Ex 42 Table 42 (fingolimod alone)

Molecule: CC1(C)O[C@@H]2C[C@H]3[C@@H]4CCC5=CC(=O)C=C[C@]5(C)[C@@]4(F)[C@@H](O)C[C@]3(C)[C@]2(C(=O)CO)O1 [Triamcinolone acetonide]
- Body weight: Weight D32 ([1]; DNCB induced mice, Example 41, D32 (treatment start), mean): 18.31
- Body weight: Weight D39 ([1]; DNCB induced mice, Example 41, D39, mean): 15.66
- Mean Body Weight Change d39 − d32 ([1]; DNCB induced mice, Example 41, (+) weight gain, (−) weight loss): −2.65
- ADI breakdown: Dryness-Peeling D39 ([2]; Example 41, D39): 0.88
- ADI breakdown: Edema-Thickening D39 ([2]; Example 41, D39): 0.00
- ADI breakdown: Erythema-Haemorrhage D39 ([2]; Example 41, D39): 0.00
- ADI breakdown: Excoriation-Erosion D39 ([2]; Example 41, D39): 0.00

Molecule: O=[N+]([O-])c1ccc(Cl)c([N+](=O)[O-])c1 [DNCB, 2,4-dinitrochlorobenzene]
- test animals with dermal scores of 1 ([3]; 0.05% w/v DNCB challenge, 24-hour scoring interval): 4/10
- test animals with erythema scores of 1 ([3]; 24-hour scoring interval): 5/10
- test animals with erythema scores of 2 ([3]; 24-hour scoring interval): 5/10
- test animals with erythema scores of 1 ([3]; 48-hour scoring interval): 6/10
- test animals with erythema scores of 2 ([3]; 48-hour scoring interval): 4/10
- Group mean dermal score at challenge ([3]; challenge with 0.05% w/v DNCB in acetone and ethanol, control animals 0.25): 0.6
- Group mean dermal score at challenge ([3]; challenge with 0.1% w/v DNCB in acetone and ethanol, control animals 0.375): 1.45

Molecule: Triamcinolone
- Body weight D39, Mean ([1]; mouse, in vivo): 17.7 g
- Body weight D39 mean ([1]; mouse, in vivo): 17.1 g
- Mean Body Weight Change d39 − d32 ([1]; mouse, in vivo): −2.80
- skin thinner than vehicle-treated normal skin [4]: about 0.8 fold

Molecule: CCCCCCCCc1ccc(CCC(N)(CO)CO)cc1 [Fingolimod hydrochloride]
- tolerability (body weight) ([1]; fingolimod AD study, 0.1% w/w and 1% w/w): not well tolerated
- solubility ([5]; ethanol): soluble
- solubility ([5]; range from pH 1.2-4.5): freely soluble
- solubility ([5]; water and methanol): freely soluble

Molecule: C[C@@H]1CCN(C(=O)CC#N)C[C@@H]1N(C)c1ncnc2[nH]ccc12 [tofacitinib]
- AUC(0-12) Median [6]: 1.056 ng·h/mL
- Tmax Geomean [6]: 3.00 h
- Tmax Median [6]: 3.00 h
- Assay of Tofacitinib, % LC ([7]; 2 months at 40° C.): 99.2 % LC
- Assay of Tofacitinib, % LC ([7]; 2 months at 50° C.): 98.6 % LC
- Assay of Tofacitinib, % LC ([7]; 3 weeks at 5° C.): 99.3 % LC
- Assay of Tofacitinib, % LC ([7]; 3 weeks at 50° C.): 99.1 % LC
- AUC(0-t) ([8]; AUC(0-12) Median): 1.97 ng·h/mL
- AUC(0-t) ([8]; AUC(0-24) Geomean): 3.21 ng·h/mL
- AUC(0-t) ([8]; AUC(0-24) Mean): 4.03 ng·h/mL
- AUC(0-t) ([8]; AUC(0-24) Median): 3.14 ng·h/mL
- Tmax ([8]; Tmax Geomean): 5.05 h
- Tmax ([8]; Tmax Median): 6 h

Molecule: CCCCCCCCc1ccc(CCC(N)(CO)CO)cc1 [Fingolimod HCl 0.011%]
- Dermis concentration, ng (based on the Mean) [9, 12]: 14.82 ng
- Epidermis concentration, ng (based on the Mean) [9, 12]: 16.21 ng

Molecule: CC1(C)O[C@@H]2C[C@H]3[C@@H]4CCC5=CC(=O)C=C[C@]5(C)[C@@]4(F)[C@@H](O)C[C@]3(C)[C@]2(C(=O)CO)O1 [triamcinolone acetonide]
- AD Index, Mean ADI values D 39 ([2]; combination study (Example 41), D 39): 0.88

Molecule: CCCCCCCCc1ccc(CCC(N)(CO)CO)cc1 [Fingolimod HCl 0.022%]
- Dermis concentration, ng (based on the Mean) [9, 13]: 49.16 ng
- Epidermis concentration, ng (based on the Mean) [9, 13]: 37.5 ng

Molecule: C[C@@H]1CCN(C(=O)CC#N)C[C@@H]1N(C)c1ncnc2[nH]ccc12 [Tofacitinib citrate]
- Solubility of TOF Citrate ([10]; in 0.02% HCl): 4.06 mg/g
- Solubility of TOF Citrate ([10]; in 0.05% NaOH): ND (degraded)
- Solubility of TOF Citrate ([10]; in Benzyl Alcohol): 0.81 mg/g
- Solubility of TOF Citrate ([10]; in DMSO): >150 mg/g
- Solubility of TOF Citrate ([10]; in Diisopropyl adipate): 0.02 mg/g
- Solubility of TOF Citrate ([10]; in Dimethyl isosorbate): 1.27 mg/g
- Solubility of TOF Citrate ([10]; in Ethanol): 0.61 mg/g
- Solubility of TOF Citrate ([10]; in Glycerin): 0.97 mg/g
- Solubility of TOF Citrate ([10]; in Hexylene Glycol): 0.25 mg/g
- Solubility of TOF Citrate ([10]; in Isopropyl Alcohol): 0.24 mg/g
- Solubility of TOF Citrate ([10]; in Isopropyl myristate): <0.02 mg/g
- Solubility of TOF Citrate ([10]; in MCT oil (Caprylic/capric triglycerides)): <0.01 mg/g
- Solubility of TOF Citrate ([10]; in Oleyl alcohol): 0.09 mg/g
- Solubility of TOF Citrate ([10]; in PPG-11 Stearyl ether): 0.02 mg/g
- Solubility of TOF Citrate ([10]; in Polyethylene Glycol 200): 5.16 mg/g
- Solubility of TOF Citrate ([10]; in Polyethylene Glycol 400): 6.96 mg/g
- Solubility of TOF Citrate ([10]; in Propylene Glycol): 1.70 mg/g
- Solubility of TOF Citrate ([10]; in Transcutol): 2.01 mg/g
- Solubility of TOF Citrate ([10]; in Water): 2.77 mg/g
- Imp B ([11]; pH 4.5, 2 w): 0.10
- RRT 1.29 ([11]; pH 5, 1 w): 0.09
- RRT 1.42 ([11]; pH 5, 1 w): 0.14
- RRT 1.29 ([11]; pH 5, 2 w): 0.08
